According to patent EP2801357A1, “Carboxylated stilbenes for activating AMPK and sirtuins” (IMD Natural Solutions GmbH, priority 2013, dated 2014):
Where two headings read alike, the source gives them in different places.

Experiments:
Sirt2 = molecular target: T1, Sirt2 (Homo sapiens, UniProt Q8IXJ6); assay: SIRT2 Fluorimetric Drug Discovery Kit, Sirt2 activation; type: biochemical
T1 construct: purchased BioMol, Hamburg, Germany
T1 sequence (Q8IXJ6 1-389): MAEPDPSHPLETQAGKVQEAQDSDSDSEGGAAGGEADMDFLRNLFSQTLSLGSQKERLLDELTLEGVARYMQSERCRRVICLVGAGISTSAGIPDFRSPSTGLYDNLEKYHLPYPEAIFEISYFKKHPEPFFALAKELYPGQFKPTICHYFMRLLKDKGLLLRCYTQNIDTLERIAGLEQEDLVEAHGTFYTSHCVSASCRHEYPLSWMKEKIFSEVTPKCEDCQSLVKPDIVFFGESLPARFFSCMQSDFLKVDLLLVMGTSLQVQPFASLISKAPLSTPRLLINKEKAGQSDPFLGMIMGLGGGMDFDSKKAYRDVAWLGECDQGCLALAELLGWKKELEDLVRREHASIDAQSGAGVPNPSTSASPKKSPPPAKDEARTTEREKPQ

human sirtuin-1 (Sirt1) = molecular target: T2, human sirtuin-1 (Sirt1) (Homo sapiens, UniProt Q96EB6); assay: SIRT1 Fluorimetric Drug Discovery Kit, Sirt1 activation; type: biochemical
T2 construct: purchased BioMol, Hamburg, Germany
T2 sequence (Q96EB6 1-747): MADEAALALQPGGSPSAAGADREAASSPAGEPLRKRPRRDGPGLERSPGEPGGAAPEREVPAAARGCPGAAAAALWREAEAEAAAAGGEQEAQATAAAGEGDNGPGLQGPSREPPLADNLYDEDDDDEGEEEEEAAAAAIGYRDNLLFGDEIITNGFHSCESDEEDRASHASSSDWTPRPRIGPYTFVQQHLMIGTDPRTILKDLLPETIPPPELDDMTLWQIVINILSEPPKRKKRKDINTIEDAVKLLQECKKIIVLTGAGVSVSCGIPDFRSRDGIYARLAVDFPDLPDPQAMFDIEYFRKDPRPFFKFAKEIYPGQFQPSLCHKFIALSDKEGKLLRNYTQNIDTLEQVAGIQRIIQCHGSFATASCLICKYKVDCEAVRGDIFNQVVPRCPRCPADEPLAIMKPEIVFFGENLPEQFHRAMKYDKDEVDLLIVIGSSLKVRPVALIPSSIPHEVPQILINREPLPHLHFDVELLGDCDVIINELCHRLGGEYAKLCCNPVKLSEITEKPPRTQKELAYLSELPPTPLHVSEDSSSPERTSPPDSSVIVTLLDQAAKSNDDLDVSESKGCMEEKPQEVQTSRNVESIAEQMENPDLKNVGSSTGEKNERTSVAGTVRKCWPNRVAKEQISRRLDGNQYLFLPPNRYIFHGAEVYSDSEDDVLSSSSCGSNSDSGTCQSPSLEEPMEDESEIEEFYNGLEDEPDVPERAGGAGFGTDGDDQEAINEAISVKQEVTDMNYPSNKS
Experimental: Compounds were tested for Sirt1 activation using the SIRT1 Fluorimetric Drug Discovery Kit (BioMol, Hamburg, Germany), Testing was carried out in duplicate following the manufacturer's instructions. Assay medium: 50mM Tris-HCl pH 8.0, 137 mM NaCl, 2.7 mM KCI, 1 mM MgCl2, 1 mg/ml bovine serum albumin (BSA). Stock solutions of the test compounds (10 mM in DMSO) were used, yielding a final concentration of 10 µM in the assay plate. Readout was obtained by measuring the fluorescence in a microtiter plate reader (excitation: 380 nm; detection: 440 nm).
The agonistic effect on Sirt1 was determined at different concentrations. For this purpose, the test compound stock solutions were diluted to yield concentrations of 0.3, 1, 3, 10 and 30 µM, respectively, in the assay, which was performed as described above. The compound of structure (I-1) was selected for this experiment.
The selectivity of the agonistic effect of the compound of formula (I-1) on different sirtuin isoforms was investigated. For this purpose, in vitro testing was performed as described in Example 1 using the respective SIRT1 Fluorimetric Drug Discovery Kit, SIRT2 Fluorimetric Drug Discovery Kit, and SIRT3 Fluorimetric Drug Discovery Kit (each from BioMol, Hamburg, Germany). […] The dose-response effect is slightly lesser on Sirt3. Table 3: Activity on Sirt1

[1] = test system: normal human epidermal keratinocytes (NHEK); assay: MTT reduction assay, cytotoxicity in NHEK; type: cell-based
Experimental: Culture conditions: 37 °C, 5 % CO2. Culture medium: Keratinocyte-SFM (serum-free medium) containing human recombinant epidermal growth factor (EGF 1-53) 0.25 ng/mL and bovine pituitary extract 25 µg/mL (Gibco; Cat. No. 17005-075), supplemented with gentamycin 25 µg/mL. Assay medium: Keratinocyte-SFM (Gibco; Cat. No. 10744-019), supplemented with gentamycin 25 µg/mL.
NHEK were seeded in 24-well plates (30.000 cells / well) and cultured in culture medium for 24 h and then in assay medium for another 24 h. Medium was then removed and replaced by assay medium containing the respective test compound or reference in defined concentrations.
Cytotoxicity was determined using the 3-(4,5-dimethylthiazol-2-yl)-2,5-diphenyltetrazoliumbromid (MTT) reduction assay (sse T. Mosmann (1983) J. Immunol. Methods. 65, pp. 55-63).

[2] = test system: normal human dermal fibroblasts (NHDF); assay: Resazurin based cytotoxicity assay in NHDF; type: cell-based; conditions: 24 h and 48 h, 0.03 µM to 200 µM
Experimental: The effect of compound (I-1) on mitochondria biosynthesis was investigated in normal human dermal fibroblasts (NHDF). NHDF were obtained from PromoCell (Lot No. 006151; donor; from eyelid skin) and cultivated in Fibroblast Growth Medium (PromoCell; Cat. No. C-023020) supplemented with Supplement Mix (PromoCell; Cat. No. C-039215) at 37 °C /5% CO2. NHDF were seeded in flat-bottom 96-well plates (5000 cells / well) and incubated in said medium for 24 h or 48 h, respectively, with the compounds present in concentrations ranging from 0.03 µM to 200 µM. Mitochondria content was analyzed using the Mito-ID® Green Detection Kit for fluorescence microscopy (Enzo Life Sciences; Cat. No. ENZ-51055-K500). Fluorometric analysis was done using a Spectramax plate reader (Molecular Devices) and following the manufacturer's protocol. Cytotoxicity was determined in parallel by fluorometric readout using the Resazurin Based In Vitro Toxicology Assay Kit (Sigma Aldrich, Cat. No. TOX-8), and following the manufacturer's protocol.

Question: Which results are given for `CCOC(=O)c1c(O)cccc1/C=C/c1ccc(OCC)cc1` [(I-1)]?
Answer: remaining activity at 0.3 µM (Sirt2; Example 2, Table 4, 0.3 µM, read-out: Activity [% control]): 114%; remaining activity at 1 µM (Sirt2; Example 2, Table 4, 1.0 µM, read-out: Activity [% control]): 142%; remaining activity at 3 µM (Sirt2; Example 2, Table 4, 3.0 µM, read-out: Activity [% control]): 204%; remaining activity at 10 µM (Sirt2; Example 2, Table 4, 10.0 µM, read-out: Activity [% control]): 530%; remaining activity at 30 µM (Sirt2; Example 2, Table 4, 30.0 µM, read-out: Activity [% control]): 914%; EC300 (Sirt2; Example 2, Table 6, Sirt2): 4.9 µM; Fold increase in sirt1 activity versus control (human sirtuin-1 (Sirt1); Example 1(a), 10 µM, trans-resveratrol as control (1.0)): 23.9; remaining activity at 0.3 µM (human sirtuin-1 (Sirt1); Example 1(b), Table 2, 0.3 µM, read-out: Activity [% control]): 147%; remaining activity at 1 µM (human sirtuin-1 (Sirt1); Example 1(b), Table 2, 1.0 µM, read-out: Activity [% control]): 233%; remaining activity at 3 µM (human sirtuin-1 (Sirt1); Example 1(b), Table 2, 3.0 µM, read-out: Activity [% control]): 434%; remaining activity at 10 µM (human sirtuin-1 (Sirt1); Example 1(b), Table 2, 10.0 µM, read-out: Activity [% control]): 626%; EC300 (human sirtuin-1 (Sirt1); Example 1(b), concentration that gave 3-times the basal response of the enzyme): 2.0 µM; remaining activity at 0.3 µM (human sirtuin-1 (Sirt1); Example 2, Table 3, 0.3 µM, read-out: Activity [% control]): 111%; remaining activity at 1 µM (human sirtuin-1 (Sirt1); Example 2, Table 3, 1.0 µM, read-out: Activity [% control]): 121%; remaining activity at 3 µM (human sirtuin-1 (Sirt1); Example 2, Table 3, 3.0 µM, read-out: Activity [% control]): 168%; remaining activity at 10 µM (human sirtuin-1 (Sirt1); Example 2, Table 3, 10.0 µM, read-out: Activity [% control]): 256%; remaining activity at 30 µM (human sirtuin-1 (Sirt1); Example 2, Table 3, 30.0 µM, read-out: Activity [% control]): 515%; EC300 (human sirtuin-1 (Sirt1); Example 2, Table 6, Sirt1): 12.9 µM; cytotoxicity against NHEK [1]: no cytotoxicity; cytotoxicity or loss of cell viability [2]: no cytotoxicity or loss of cell viability
